In patent US20240409542A1, “NOVEL COMPOUNDS” (Sitryx Therapeutics Limited, priority 2021, published 2024):
Values after ≈ are worked out from the molar mass of the structure shown. Read-outs that look alike come from different tables or passages of the source. Marks after values point to notes of the source that are not given here.

What was measured:
recombinant human PKM2 = recombinant human PKM2 (Homo sapiens (Human), UniProt P14618); test: Human PKM2 activation assay (Kinase-Glo Plus luminescence); type: biochemical; conditions: for EC50: activation of recombinant human PKM2, 4-parameter logistic fit, read-out: hPKM2 EC50; for Emax: read-out: hPKM2 Emax (%)
Sequence of recombinant human PKM2 (P14618 whole entry): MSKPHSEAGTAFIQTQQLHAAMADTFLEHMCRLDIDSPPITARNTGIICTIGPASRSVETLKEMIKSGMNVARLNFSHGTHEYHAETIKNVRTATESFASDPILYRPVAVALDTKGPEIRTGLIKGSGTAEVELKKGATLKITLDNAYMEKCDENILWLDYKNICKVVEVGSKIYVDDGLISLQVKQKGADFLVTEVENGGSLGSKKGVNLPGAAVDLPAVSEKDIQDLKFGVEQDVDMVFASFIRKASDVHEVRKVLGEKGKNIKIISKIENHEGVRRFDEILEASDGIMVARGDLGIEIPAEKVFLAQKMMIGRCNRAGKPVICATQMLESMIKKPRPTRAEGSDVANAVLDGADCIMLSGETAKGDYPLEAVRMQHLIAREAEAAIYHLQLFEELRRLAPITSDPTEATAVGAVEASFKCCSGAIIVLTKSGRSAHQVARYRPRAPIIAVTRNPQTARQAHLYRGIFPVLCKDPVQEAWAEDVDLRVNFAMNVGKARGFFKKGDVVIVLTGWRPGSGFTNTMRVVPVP
Procedure: Compound activation of recombinant human PKM2 pyruvate kinase activity was determined by biochemical assay. N-terminal His-tagged hPKM2 was sourced from R&D Systems and its substrates phosphoenolpyruvate (PEP) and ADP from Sigma-Aldrich and 2BScientific Ltd, respectively. The Kinase-Glo® Plus luminescence assay was from Promega. All other reagents were from Sigma-Aldrich. Test Compounds were prepared as 10 mM DMSO stocks and dilution series prepared in DMSO for direct dilution into Assay Buffer comprising 50 mM imidazole, 50 mM KCl, 7 mM MgCl2, 0.01% Tween20, 0.05% BSA (pH 7.2).
Human PKM2 was diluted into Assay Buffer comprising 50 mM imidazole, 50 mM KCl, 7 mM MgCl2, 0.01% Tween20, 0.05% BSA (pH 7.2) to a final concentration of 5 pM. Enzyme-Assay Buffer mix was dispensed into a 384-well shallow-well white-walled plate (PerkinElmer) and Test Compounds added by acoustic dispense (Echo®, Labcyte Inc.).
After 60 minutes' incubation on an orbital shaker (300 rpm, 26° C.), enzyme activity was quantified by the luminescent detection of generated ATP. Kinase-Glo® Plus reagent was added to each well and the plates incubated for a further 15 minutes on an orbital shaker in the dark (300 rpm, 26° C.) before luminescence measurement on a plate reader (PHERAstar® FSX, BMG Labtech).
EC50 and Emax values were determined from 4-parameter logistic fits of compound concentration-response curves.

recombinant human PKLR = recombinant human PKLR (Homo sapiens (Human), UniProt P30613); test: Human PKLR activation assay (Kinase-Glo Plus luminescence); conditions: for Emax: read-out: hPKLR Emax (%)
Sequence of recombinant human PKLR (P30613 whole entry): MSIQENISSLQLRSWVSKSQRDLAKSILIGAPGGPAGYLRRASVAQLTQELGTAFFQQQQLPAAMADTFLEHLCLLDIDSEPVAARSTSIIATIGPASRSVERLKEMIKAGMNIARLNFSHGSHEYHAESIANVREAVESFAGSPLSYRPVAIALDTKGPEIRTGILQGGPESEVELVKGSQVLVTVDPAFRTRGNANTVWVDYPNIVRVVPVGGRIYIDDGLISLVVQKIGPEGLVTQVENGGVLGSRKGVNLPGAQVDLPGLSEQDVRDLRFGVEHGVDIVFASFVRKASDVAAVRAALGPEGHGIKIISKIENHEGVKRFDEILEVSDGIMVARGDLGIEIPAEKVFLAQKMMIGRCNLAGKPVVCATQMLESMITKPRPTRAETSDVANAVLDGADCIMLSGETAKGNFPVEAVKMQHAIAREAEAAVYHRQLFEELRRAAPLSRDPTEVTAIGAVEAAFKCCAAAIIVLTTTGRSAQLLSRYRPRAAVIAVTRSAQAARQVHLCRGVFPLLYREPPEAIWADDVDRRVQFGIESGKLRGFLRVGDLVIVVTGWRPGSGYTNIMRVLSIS
Procedure: Compound activation of recombinant human PKLR pyruvate kinase activity was determined by biochemical assay. N-terminal His-tagged enzyme was sourced from R&D Systems and its substrates phosphoenolpyruvate (PEP) and ADP from Sigma-Aldrich and 2BScientific Ltd, respectively. The Kinase-Glo® Plus luminescence assay was from Promega. All other reagents were from Sigma-Aldrich. Test Compounds were prepared as 10 mM DMSO stocks and dilution series prepared in DMSO for direct dilution into Assay Buffer comprising 50 mM imidazole, 50 mM KCl, 7 mM MgCl2, 0.01% Tween20, 0.05% BSA (pH 7.2).
Human PKLR was diluted into Assay Buffer to a final concentration of 5 pM. Enzyme-Assay Buffer mix was dispensed into 384-well shallow-well white-walled plates and Test Compounds added by acoustic dispense (Echo®, Labcyte Inc).

[1] = Kinetic aqueous solubility; conditions: PBS pH 7.4, 200 μM (2% DMSO), RT; for solubility kinetic at 1.5 h: phosphate buffered saline (PBS) pH 7.4, pH 7.4, aqueous buffer, kinetic from dmso stock, Kinetic solubility (Ksol), (μg/ml)
Procedure: (§1) Phosphate buffered saline (PBS) pH 7.4 was prepared using PBS tablets as per the manufacturer's instructions. Compounds and marker stocks are prepared at 10 mM in DMSO.
(§2) Compounds were incubated at 200 μM (2% DMSO) in Millipore—MSS LB PC 10 or Porvair—ref: 36004 plates in the presence of the prepared PBS pH 7.4 solution for 1.5 h, at RT, with gentle shaking. […] The samples were then analysed in a 96 well UV Star analysis plate on a plate reader from 220 nm to 500 nm at 10 nm increments.
(§3) The concentration of the samples was calculated against the standard curves.

A549 cells = test: A549 proliferation assay in low-serine medium (CellTiter-Glo); type: cell-based; conditions: Homo sapiens, 72 h, 3 days, low-serine medium (20 μM L-serine)
Procedure: The effect of compounds of Formula (I) on A549 cell proliferation in low-serine medium was assessed using a luminescence assay of viable cell number (CellTiter-Glo® 2.0, Promega) duplexed with a fluorescent cytotoxicity assessment (CellTox™ Green, Promega). Cell culture reagents were from ThermoFisher unless specified otherwise. Assay reagents were from Sigma-Aldrich unless specified otherwise. Test Compounds were prepared as 10 mM DMSO stocks and dilution series prepared in DMSO for direct dilution into culture medium.
Cells were passaged every 3-4 days at 80-90% confluence. The cell monolayer was washed twice with room-temperature Ca^2+/Mg-free PBS and 4 ml room-temperature trypsin-EDTA added to the flask. After 5 minutes' incubation (37° C., 5% CO2) to detach cells, trypsin was quenched with 13 ml warmed complete growth medium and the cells harvested and diluted to 2.4×10^4 cells/ml for dispensing into 384-well clear-bottom black-walled plates (600 cells/well).
Following overnight incubation, growth medium was aspirated from each well and the cells washed twice with Assay Medium comprising Basal Medium Eagle supplemented with 3% heat-inactivated dialysed FBS plus 2 mM L-glutamine plus 20 μM L-serine (Sigma-Aldrich). After aspiration of the final wash medium, Assay Medium containing Test Compound was added to each well. DMSO vehicle controls were included on each plate.
Cells were incubated for 3 days in a humidified incubator (37° C., 5% CO2) at which point CellTox™ Green and CellTiter-Glo® reagents were prepared according to the manufacturer's instructions. Triton-X was added to HIGH wells for cytotoxicity determination and the plate incubated for 30 minutes (20° C., ambient humidity and pCO2). CellTox™ Green reagent was added to each well and the plate covered, placed on an orbital shaker @450 rpm for 2 minutes, and incubated in the dark for 15 minutes (20° C., ambient humidity and pCO2). Endpoint fluorescence was measured using a plate reader (PHERAstar® FSX, BMG Labtech).
Following cytotoxicity determination, CellTiter-Glo® reagent was added to each well and the plate placed on an orbital shaker @450 rpm for 2 minutes to lyse cells. Plates were incubated in the dark for 15-30 minutes (20° C., ambient humidity and pCO2) prior to endpoint luminescence measurement (PHERAstar® FSX, BMG Labtech).
Proliferation was calculated by normalizing luminescence signals to LOW controls obtained from a parallel plate processed at the time of Test Compound challenge and HIGH (DMSO vehicle) wells from the compound plate. IC50 values were determined from a 4-parameter logistic fit of compound concentration-response curves.

[2] = pH 7.4
Procedure: as §1, §2, §3

Cc1ncc(S(=O)(=O)N2CCc3c(n(C)c4c(=O)n(Cc5cccc(N)c5)ncc34)C2)s1 [Example 10, 3-(3-aminobenzyl)-5-methyl-7-((2-methylthiazol-5-yl)sulfonyl)-3,5,6,7,8,9-hexahydro-4H-pyrido[4′,3′:4,5]pyrrolo[2,3-d]pyridazin-4-one]
EC50 (recombinant human PKM2): 4680 nM | Emax (recombinant human PKM2): 72% | EC50 (recombinant human PKLR): > 320 nM | Emax (recombinant human PKLR): 90 to 100% | solubility kinetic at 1.5 h [1]: 17.1 µg/mL (≈ 36.4 µM) | IC50 (A549 cells): 117 nM

Cn1c2c(c3cnn(Cc4cccc(N)c4)c(=O)c31)CCN(S(C)(=O)=O)C2 [Example 7, 3-(3-aminobenzyl)-5-methyl-7-(methylsulfonyl)-3,5,6,7,8,9-hexahydro-4H-pyrido[4′,3′:4,5]pyrrolo[2,3-d]pyridazin-4-one]
EC50 (recombinant human PKM2): 346 nM | Emax (recombinant human PKM2): 107% | EC50 (recombinant human PKLR): 60 to 320 nM | Emax (recombinant human PKLR): 100 to 117% | solubility kinetic at 1.5 h [1]: 72.2 µg/mL (≈ 186 µM) | IC50 (A549 cells): 0.9 nM

Cn1c2c(c3cnn(Cc4cccc(N)c4)c(=O)c31)CCN(S(=O)(=O)C1CC1)C2 [Example 9, 3-(3-aminobenzyl)-7-(cyclopropylsulfonyl)-5-methyl-3,5,6,7,8,9-hexahydro-4H-pyrido[4′,3′:4,5]pyrrolo[2,3-d]pyridazin-4-one]
EC50 (recombinant human PKM2): 1770 nM | Emax (recombinant human PKM2): 47.3% | EC50 (recombinant human PKLR): > 320 nM | Emax (recombinant human PKLR): < 90% | solubility kinetic at 1.5 h [1]: 43.1 µg/mL (≈ 104 µM) | IC50 (A549 cells): 25.8 nM

COc1cc(F)c(Cn2ncc3c4c(n(C)c3c2=O)CN(S(C)(=O)=O)CC4)c(F)c1 [Example 6, 3-(2,6-difluoro-4-methoxybenzyl)-5-methyl-7-(methylsulfonyl)-3,5,6,7,8,9-hexahydro-4H-pyrido[4′,3′:4,5]pyrrolo[2,3-d]pyridazin-4-one]
EC50 (recombinant human PKM2): 317 nM | Emax (recombinant human PKM2): 85.3% | EC50 (recombinant human PKLR): 43.5 to 60 nM | Emax (recombinant human PKLR): < 90% | Kinetic solubility (Ksol); (μg/ml) ([1]; 1.5 h): 0.87* μg/ml | solubility kinetic at 1.5 h [1]: 0.64 µg/mL (≈ 1.46 µM) | IC50 (A549 cells): 16.8 nM

Cn1c2c(c3cnn(Cc4cc[nH]n4)c(=O)c31)CCN(S(=O)(=O)c1ccccc1)C2 [Example 12, 3-((1H-pyrazol-3-yl)methyl)-5-methyl-7-(phenylsulfonyl)-3,5,6,7,8,9-hexahydro-4H-pyrido[4′,3′:4,5]pyrrolo[2,3-d]pyridazin-4-one]
EC50 (recombinant human PKM2): 1490 nM | Emax (recombinant human PKM2): 79.7% | EC50 (recombinant human PKLR): 60 to 320 nM | Emax (recombinant human PKLR): 100 to 117% | solubility kinetic at 1.5 h [1]: 61.6 µg/mL (≈ 145 µM) | IC50 (A549 cells): 13.5 nM

CC(=O)N1CCc2c(n(C)c3c(=O)n(Cc4cccc(N)c4)ncc23)C1 [Example 8, 7-acetyl-3-(3-aminobenzyl)-5-methyl-3,5,6,7,8,9-hexahydro-4H-pyrido [4′,3′:4,5]pyrrolo[2,3-d]pyridazin-4-one]
EC50 (recombinant human PKM2): 1740 nM | Emax (recombinant human PKM2): 83.1% | EC50 (recombinant human PKLR): > 320 nM | Emax (recombinant human PKLR): < 90% | solubility kinetic at 1.5 h [1]: > 70.3 µg/mL | IC50 (A549 cells): 25.4 nM

COc1cccc(Cn2ncc3c4c(n(C)c3c2=O)CN(S(C)(=O)=O)CC4)c1F [Example 5, 3-(2-fluoro-3-methoxybenzyl)-5-methyl-7-(methylsulfonyl)-3,5,6,7,8,9-hexahydro-4H-pyrido[4′,3′:4,5]pyrrolo[2,3-d]pyridazin-4-one]
EC50 (recombinant human PKM2): 591 nM | Emax (recombinant human PKM2): 96.7% | EC50 (recombinant human PKLR): 60 to 320 nM | Emax (recombinant human PKLR): < 90% | solubility kinetic at 1.5 h [1]: 5.13 µg/mL (≈ 12.2 µM) | IC50 (A549 cells): 13.3 nM

(3-((1H-pyrrolo[2,3-c]pyridin-3-yl)methyl)-N-ethyl-5-methyl-4-oxo-5,6,8,9-tetrahydro-3H-pyrido[4′,3′:4,5]pyrrolo[2,3-d]pyridazine-7(4H)-sulfonamide [Example 30]
EC50 (recombinant human PKM2): 83 nM | hPKM2 Emax (%) (recombinant human PKM2; percentage activation normalised to DMSO vehicle (LOW) and 5 μM TEPP-46 (HIGH)): 62.2% | Kinetic solubility (Ksol); [2]: 30.29 µg/mL

Cn1c2c(c3cnn(Cc4cccc(N)c4)c(=O)c31)CCN(S(=O)(=O)c1ccccc1)C2 [Example 11, 3-(3-aminobenzyl)-5-methyl-7-(phenylsulfonyl)-3,5,6,7,8,9-hexahydro-4H-pyrido[4′,3′:4,5]pyrrolo[2,3-d]pyridazin-4-one]
EC50 (recombinant human PKM2): 846 nM | Emax (recombinant human PKM2): 88.4% | EC50 (recombinant human PKLR): 60 to 320 nM | Emax (recombinant human PKLR): < 90% | solubility kinetic at 1.5 h [1]: 9.9 µg/mL (≈ 22 µM) | IC50 (A549 cells): 14 nM

Cn1c2c(c3cnn(Cc4ccc5c(c4)CCO5)c(=O)c31)CCN(S(C)(=O)=O)C2 [Example 1, 3-((2,3-dihydrobenzofuran-5-yl)methyl)-5-methyl-7-(methylsulfonyl)-3,5,6,7,8,9-hexahydro-4H-pyrido[4′,3′:4,5]pyrrolo[2,3-d]pyridazin-4-one]
EC50 (recombinant human PKM2): 180 nM | Emax (recombinant human PKM2): 86.9% | EC50 (recombinant human PKLR): 60 to 320 nM | Emax (recombinant human PKLR): 90 to 100% | Kinetic solubility (Ksol); (μg/ml) ([1]; 1.5 h): 12.85* μg/ml | solubility kinetic at 1.5 h [1]: 13.9 µg/mL (≈ 33.5 µM) | IC50 (A549 cells): 1.6 nM

COc1ccc(Cn2ncc3c4c(n(C)c3c2=O)CN(S(C)(=O)=O)CC4)cn1 [Example 2, 3-((6-methoxypyridin-3-yl)methyl)-5-methyl-7-(methylsulfonyl)-3,5,6,7,8,9-hexahydro-4H-pyrido[4′,3′:4,5]pyrrolo[2,3-d]pyridazin-4-one]
EC50 (recombinant human PKM2): 306 nM | Emax (recombinant human PKM2): 93.7% | EC50 (recombinant human PKLR): 60 to 320 nM | Emax (recombinant human PKLR): 100 to 117% | Kinetic solubility (Ksol); ([1]; 1.5 h): 36.19 µg/mL | solubility kinetic at 1.5 h [1]: 36.1 µg/mL (≈ 89.5 µM) | IC50 (A549 cells): 4.5 nM

CC(O)c1cccc(Cn2ncc3c4c(n(C)c3c2=O)CN(S(C)(=O)=O)CC4)c1 (stereo not shown) [Example 3, 3-(3-(1-hydroxyethyl)benzyl)-5-methyl-7-(methylsulfonyl)-3,5,6,7,8,9-hexahydro-4H-pyrido[4′,3′:4,5]pyrrolo[2,3-d]pyridazin-4-one]
EC50 (recombinant human PKM2): 303 nM | Emax (recombinant human PKM2): 81.4% | EC50 (recombinant human PKLR): 60 to 320 nM | Emax (recombinant human PKLR): 100 to 117% | Kinetic solubility (Ksol); (μg/ml) ([1]; 1.5 h): 17.91* μg/ml | solubility kinetic at 1.5 h [1]: 19 µg/mL (≈ 45.6 µM) | IC50 (A549 cells): 10.5 nM
